Laboratory results as given in patent US7259172B2, “Inhibitors of β-lactamase” (priority 1999, dated 2007).
pIC50: −log10 of the molar value. Structures can show the parent of a compound that is named as a salt. Where two headings read alike, the source gives them in different places.

Key:
[1] = biological target: P99 β-lactamase (class C) (Enterobacter cloacae, UniProt P05364); test: biochemical; details: for IC50: Class C β-lactamase [P99], Table 1, read-out: IC50 (μM) “C”
Method: Enzyme activity against the commercially available substrate, nitrocefin, was measured in the presence of various inhibitor concentrations. The P99 β-lactamase enzyme (1 mg/mL) was dissolved in 20 mM MOPS buffer at pH 7.50, and diluted 200-fold in the same buffer containing 0.1% BSA. Nitrocefin was stored as a 100 μM stock solution in 20 mM MOPS at pH 7.5. Stock solutions of test compounds were prepared in 10 mM MOPS at pH 7.5 (approximately 1 mg/mL)
The reaction at 25° C. was followed spectrophotometrically at 482 nm. IC50 values were determined from the dose-response plots of the initial rates vs. inhibitor concentration

[2] = tested on: Haemophilus influenzae [ATCC #43163]; test: Antibiotic MIC in presence and absence of β-lactamase inhibitor (synergy); format: cell-based; details: ratio antibiotic MIC without/with inhibitor; inhibitor 10 μg/mL
Description: (§1) An increasing number of organisms produce enzymes that inhibit the actions of β-lactam antibiotics, so-called β-lactamases. The “strength” of β-lactam antibiotics can be improved by pairing them with compounds that inhibit bacterial enzyme β-lactamases. The Minimum Inhibitory Concentration (MIC) test determines the lowest concentration of an antibiotic at which no visible bacterial growth occurs. This test permits comparisons to be made between bacterial growth in the presence of antibiotic alone (control) and bacterial growth in the presence of both an antibiotic and a novel (test) compound.
(§2) • β-lactamase positive strains • β-lactam antibiotics • β-lactamase inhibitor compounds • appropriate bacterial growth medium β-Lactamase Positive Strains • Klebsiella oxytoca [ATCC#51983] • Staphylococcus aureus [MGH: MA#50848] • Enterococcus faecalis [ATCC#49757] • Enterobacter cloacae [ATCC#23355] • Haemophilus influenzae [ATCC#43163] β-Lactam antibiotics
(§3) Frozen bacterial stocks were thawed to room temperature, and a few drops were placed on an appropriate plate; chocolate agar was used for H. influenzae, blood agar was used for all others. The plates were incubated overnight at 37° C. in air, except for H. influenzae, which was incubated in a CO2 incubator. The cultures were subcultured the following day, and the subcultures were again incubated overnight
(§4) A sterile loop was touched to 3 colonies and used to inoculate 1 mL of Mueller-Hinton Broth (MHB). The bacterial solution was diluted 18.8-fold (20 μL of bacterial solution in […] of broth). 5 μL of the resultant inoculum solution contained ˜4×10^4 CFU/mL. Confirmation of the inoculum was performed by preparing a serial dilution to give 100 μL of a 5000-fold dilution, all of which was then plated onto an appropriate plate. After incubation overnight at 37° C., the plate had 75-150 colonies.
(§5) In each well of a 96-well microtiter plate was combined 5 μL of bacterial inoculum, 90 μL of antibiotic dilutions, and 5 μL of test compound (or media for determination of the MIC of the antibiotic in the absence of test compound). Each plate included 2 wells with no bacterial inoculum (negative control) and 2 wells with no test compound and no antibiotic (positive control). The plate was covered and incubated with gentle shaking for 16-20 hours at 37° C. in air (CO2 for H. influenzae). Absorbance was read at 540 nm (Multiskan Titertek mcc/340). Bacterial growth was scored as follows:
(§6) In some cases, the determination of MIC in the presence of test compound was performed at more than one concentration of the test compound.
(§7) The impact of the novel β-lactamase inhibitors is expressed as the ratio of the MIC determined in the absence of β-lactamase inhibitor to the MIC determined in the presence of the specified concentration of the β-lactamase inhibitor test compound. […]

[3] = tested on: Staphylococcus aureus [MGH:MA #50848]; test: as above; format: cell-based; details: ratio antibiotic MIC without/with inhibitor; inhibitor 10 μg/mL
Description: as §1, §2, §3, §4, §5, §6, §7

[4] = tested on: Enterobacter cloacae [ATCC #23355]; format: cell-based; details: ratio antibiotic MIC without/with inhibitor
Description: An increasing number of organisms produce enzymes that inhibit the actions of β-lactam antibiotics, so-called β-lactamases. […] The Minimum Inhibitory Concentration (MIC) test determines the lowest concentration of an antibiotic at which no visible bacterial growth occurs. This test permits comparisons to be made between bacterial growth in the presence of antibiotic alone (control) and bacterial growth in the presence of both an antibiotic and a novel (test) compound.
as §3
A sterile loop was touched to 3 colonies and used to inoculate 1 mL of Mueller-Hinton Broth (MHB). […] 5 μL of the resultant inoculum solution contained ˜4×10^4 CFU/mL. Confirmation of the inoculum was performed by preparing a serial dilution to give 100 μL of a 5000-fold dilution, all of which was then plated onto an appropriate plate.
Each plate included 2 wells with no bacterial inoculum (negative control) and 2 wells with no test compound and no antibiotic (positive control). The plate was covered and incubated with gentle shaking for 16-20 hours at 37° C. in air (CO2 for H. influenzae). Absorbance was read at 540 nm (Multiskan Titertek mcc/340). Bacterial growth was scored as follows:
as §6
The impact of the novel β-lactamase inhibitors is expressed as the ratio of the MIC determined in the absence of β-lactamase inhibitor to the MIC determined in the presence of the specified concentration of the β-lactamase inhibitor test compound.

[5] = tested on: Pseudomonas aeroginosa [ATCC#12470-resistant]; test: Synergy against highly resistant β-lactamase positive strains; format: cell-based
Method: as §3, §4, §5, §6, §7
(§8) Following procedures identical to those described in Example 72, β-lactamase inhibitors were tested for their ability to enhance antibiotic efficacy against β-lactamase positive bacterial strains that are very highly resistant to β-lactam antibiotics.
(§9) • Enterobacter cloacae (derepressed) • Pseudomonas aeroginosa [ATCC#12470-resistant] • Stenotrophomonas maltophilia [ATCC#12968-resistant] • Pseudomonas aeroginosa [ATCC#98043010-intermediate resistance] • Stenotrophomonas maltopilia [ATCC#98043029-intermediate resistance]

[6] = tested on: Pseudomonas aeroginosa [ATCC#98043010-intermediate resistance]; test: as above; format: cell-based
Method: as §3, §4, §5, §6, §7, §8, §9

[7] = tested on: Stenotrophomonas maltophilia [ATCC#98043029-intermediate resistance]; test: as above; format: cell-based
Method: as §3, §4, §5, §6, §7, §8, §9

[8] = tested on: Stenotrophomonas maltophilia [ATCC#12968-resistant]; test: as above; format: cell-based
Method: as §3, §4, §5, §6, §7, §8, §9

[9] = tested on: Enterobacter cloacae (derepressed); test: as above; format: cell-based; details: derepressed strain
Method: as §3, §4, §5, §6, §7, §8, §9

[10] = Table 1

P99 β-lactamase (class C), sequence (P05364 21-381): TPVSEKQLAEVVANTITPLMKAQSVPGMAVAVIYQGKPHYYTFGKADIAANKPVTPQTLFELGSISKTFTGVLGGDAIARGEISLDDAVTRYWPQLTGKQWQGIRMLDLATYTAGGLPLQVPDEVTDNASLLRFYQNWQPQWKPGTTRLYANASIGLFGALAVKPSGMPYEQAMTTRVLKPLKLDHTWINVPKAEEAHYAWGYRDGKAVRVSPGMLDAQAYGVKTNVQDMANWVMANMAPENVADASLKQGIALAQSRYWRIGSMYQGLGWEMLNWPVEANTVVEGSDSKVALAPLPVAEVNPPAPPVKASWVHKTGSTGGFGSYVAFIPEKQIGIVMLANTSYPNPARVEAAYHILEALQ

Row | Molecule | pIC50 [1] | Synergy Class A H. In. [2] | Synergy Class C E. Cl ([4]; inhibitor 10 μg/mL) | also measured
1 | N.O=[N+]([O-])c1ccc(OP(=O)(O)C(Cc2ccccc2)NS(=O)(=O)c2cccs2)cc1 (stereo not drawn) [Compound 44, [2-Phenyl-1-(thiophene-2-sulfonylamino)-ethyl]-phosphonic acid mono-(4-nitrophenyl) ester ammonium salt] | 3.72 | 1 | 2/2 | Synergy Class A St. A. [3]: 1; Synergy Class C E. Cl ([4]; inhibitor 1 μg/mL): 2/2
2 | N.O=P(O)(Oc1cccnc1Cl)C(Cc1ccccc1)NS(=O)(=O)c1cccs1 (stereo not drawn) [Compound 46, [2-Phenyl-1-(thiophene-2-sulfonylamino)-ethyl]-phosphonic acid mono-(2-chloropyridin-3-yl) ester ammonium salt] | 3.73 | 1 | 1/1 | Synergy Class A St. A. [3]: 1; Synergy Class C E. Cl ([4]; inhibitor 1 μg/mL): 1/1
3 | CN(CP(=O)(O)Oc1ccc([N+](=O)[O-])cc1)S(=O)(=O)c1cccs1.N [Compound 47, [(2-Thiophenesulfonyl-N-methylamino)methyl]-phosphonic acid mono-(4-nitrophenyl) ester ammonium salt] | 3.56 | 1 | 2 | –
4 | CC(C)C(NS(=O)(=O)c1cccs1)P(=O)(O)Oc1ccc([N+](=O)[O-])cc1 (stereo not drawn) [Compound 52, [2-Methyl-1-thiophene-2-sulfonylamino)-propyl]-phosphonic acid mono-(4-nitrophenyl) ester ammonium salt] | 2.85 | 1 | 4 | Synergy Class A St. A. [3]: 1; Synergy Class C E. Cl ([4]; inhibitor 1 μg/mL): 2
5 | N.O=[N+]([O-])c1ccc(OP(=O)(O)C(NS(=O)(=O)c2cccs2)c2ccccc2)cc1 (stereo not drawn) [Compound 53, [Phenyl-(thiophene-2-sulfonylamino)-methyl]-phosphonic acid mono-(4-nitrophenyl) ester ammonium salt] | 3.44 | 1 | 2/2 | Synergy Class A St. A. [3]: 1; Synergy Class C E. Cl ([4]; inhibitor 1 μg/mL): 2/2
6 | CC(C)C(NS(=O)(=O)c1cccs1)P(=O)(O)Oc1cccnc1Cl.N (stereo not drawn) [Compound 54, [2-Methyl-1-(thiophene-2-sulfonylamino)-propyl]-phosphonic acid mono-(2-chloropyridin-3-yl) ester ammonium salt] | 2.74 | 1 | 2 | Synergy Class A St. A. [3]: 1; Synergy Class C E. Cl ([4]; inhibitor 1 μg/mL): 1
7 | N.O=P(O)(Oc1cccnc1Cl)C(NS(=O)(=O)c1cccs1)c1ccccc1 (stereo not drawn) [Compound 60, [Phenyl-(thiophene-2-sulfonylamino)-methyl]-phosphonic acid mono-(2-chloropyridin-3-yl) ester ammonium salt] | 3.22 | 1 | 2 | Synergy Class A St. A. [3]: 1; Synergy Class C E. Cl ([4]; inhibitor 1 μg/mL): 1
8 | O=[N+]([O-])c1ccc(OP(=O)(O)CNS(=O)(=O)c2cc3c(Cl)ccc(Cl)c3s2)cc1 [Compound 128, (5,8-dichlorobenzothiophene-2-sulfonyl)aminomethylphosphonic acid mono-(4-nitrophenyl) ester ammonium salt] | 7.00 | – | 16 | Synergy Resistant Pseudo. ([5]; inhibitor 1 μg/mL): 1; Synergy Resistant Pseudo. ([5]; inhibitor 10 μg/mL): 1; Synergy Intermed. Pseudo. ([6]; inhibitor 1 μg/mL): 1; Synergy Intermed. Pseudo. ([6]; inhibitor 10 μg/mL): 2; Synergy Intermed. Stenotro. ([7]; inhibitor 1 μg/mL): 1; Synergy Intermed. Stenotro. ([7]; inhibitor 10 μg/mL): 2; Synergy Resistant Stenotro. ([8]; inhibitor 1 μg/mL): 1; Synergy Resistant Stenotro. ([8]; inhibitor 10 μg/mL): 1; Synergy Resistant Ent. Cloacae ([9]; inhibitor 1 μg/mL): 1; Synergy Resistant Ent. Cloacae ([9]; inhibitor 10 μg/mL): 5; logP (physchem): 0.45
9 | CN(CP(=O)(O)Oc1ccc([N+](=O)[O-])cc1)S(=O)(=O)c1cc2ccccc2s1.N [Compound 142, [(2-Benzothiophenesulfonyl-N-methylamino)-methyl]-phosphonic acid mono-(4-nitrophenyl) ester ammonium salt] | 2.89 | – | 2 | logP (physchem): -0.091
10 | O=[N+]([O-])c1ccc(OP(=O)(O)CN(Cc2ccccc2)S(=O)(=O)c2cc3ccccc3s2)cc1 [Compound 145, (2-Benzothiophenesulfonyl-N-benzylamino)-methyl]-phosphonic acid mono-(4-nitrophenyl) ester ammonium salt] | 4.03 | – | 4 | logP (physchem): 0.86
11 | O=[N+]([O-])c1ccc(OP(=O)(O)CNS(=O)(=O)c2ccccc2)cc1 [compound 7] | 5.40 | – | – | –
12 | O=[N+]([O-])c1ccc(OP(=O)(O)CNS(=O)(=O)c2ccc([N+](=O)[O-])cc2)cc1 [compound 12] | 5.00 | – | – | –
13 | O=[N+]([O-])c1ccc(OP(=O)(O)CNS(=O)(=O)c2cccs2)cc1 [compound 15] | 4.74 | – | – | –
14 | O=[N+]([O-])c1ccc(OP(=O)(O)CNS(=O)(=O)c2ccccc2Br)cc1 [compound 23] | 4.85 | – | – | –
15 | O=[N+]([O-])c1ccc(OP(=O)(O)CNS(=O)(=O)c2ccccn2)cc1 [compound 31] | 3.87 | – | – | –
16 | O=P(O)(CNS(=O)(=O)c1cccs1)Oc1cccc(Cl)c1 [compound 48] | 3.72 | – | – | –
17 | O=P(O)(CNS(=O)(=O)c1ccsc1)Oc1cccnc1 [compound 55] | 2.44 | – | – | –
18 | O=[N+]([O-])c1ccc(OP(=O)(O)CNS(=O)(=O)c2cc3ccccc3s2)cc1 [compound 77] | 6.40 | – | – | –
19 | CN(C)c1cccc(OP(=O)(O)CNS(=O)(=O)c2cccs2)c1 [compound 78] | 2.52 | – | – | –
20 | O=[N+]([O-])c1ccc(OP(=O)(O)NNS(=O)(=O)c2ccccc2)cc1 [compound 189] | – | – | – | IC50 [1]: 62 µM
21 | [(2-Benzothiophenesulfonyl-N-ethylamino)-methyl]-phosphonic acid mono-(4-nitrophenyl) ester ammonium salt [Compound 144] | – | – | – | IC50 [1]: 463 µM; Log P [10]: −0.036
22 | [(2-Benzothiophenesulfonyl-N-phenylethylamino)-methyl]-phosphonic acid mono-(4-nitrophenyl) ester ammonium salt [Compound 143] | – | – | – | IC50 [1]: 133 µM; Log P [10]: 1.17
